Measurements published in patent US20220220041A1, “USE OF UREA AS AN ANTIMICROBIAL ADDITIVE IN AN AQUEOUS SUSPENSION” (Omya International AG, priority 2019, published 2022).

Legend:
[1] = tested on: non-sterile calcium carbonate slurry (H60), environmental bacteria; test: Example 2 preservation efficacy: H60 slurry with 61 wt.-% urea solution, non-sterile H60 inoculum, TVC; format: cell-based; conditions: 30° C.
Procedure: (§1) All quoted bacterial counts (Total viable counts (TVC) values), unless otherwise indicated, are given in cfu/ml and determined after at least 2 days following plate-out and incubation at 30° C. and in accordance with the counting method described in “Bestimmung von aerobe mesophilen Keimen”, Schweizerisches Lebensmittelbuch, chapter 56, section 7.01, edition of 1985, revised version of 1988.
(§2) Unless otherwise stated, per tryptic soy agar plate (TSA, prepared using BD 236950) 0.1 ml of a solution or suspension is plated. Counts from 10000 cfu/ml to 99999 cfu/ml are reported as >1E4 cfu/ml. Counts from 100000 cfu/ml to 999999 cfu/ml are reported as >1E5 cfu/ml. Counts above 1000000 cfu/ml are reported as >1E6 cfu/ml.
(§3) Non-sterile slurries (H60 or H90) contain contamination with environmental bacteria at a TVC>100000 cfu/ml. The contamination originates spontaneously and a bacterial burden of at least>100000 cfu/ml is confirmed prior use as inoculum by TVC. The following bacterial species are known to occur, as identified by 16S RNA sequencing or MALDI-TOF-MS analysis: Rhizobium radiobacter, Brevundimonas intermedia, Brevundimonas diminiuta, Sphingomonas sp., Pseudomonas stutzeri, Pseudomonas sp., Comomonas aquatic.
50 g sterile slurry H60 with a solid content of 76.5 wt.-%, based on the total weight of the H60 slurry is supplemented with different amounts of 61 wt.-% urea solution or water. The samples are then inoculated with 1 ml non-sterile calcium carbonate slurry (H60), 1 ml non-sterile calcium carbonate slurry (H90), 0.02 ml overnight culture of Escherichia coli (DSMZ 46295) and 0.02 ml overnight culture of Pseudomonas putida. The control samples are not inoculated. Samples are incubated at 30° C. and the TVC and pH are determined at various time points (0 day, 1 day, 4, days, 8 days, 9 days and/or 13 days).

[2] = tested on: non-sterile calcium carbonate slurry (H90), environmental bacteria; test: Example 1 preservation efficacy: sterile H90 slurry with dry urea, up to three inoculations with non-sterile H90 slurry, TVC; format: cell-based; conditions: for TVC cfu/ml 2nd Inoculation / TVC cfu/ml 3rd Inoculation / TVC cfu/ml 1st Inoculation: calcium carbonate 75%, water 25% w/w, H90 slurry; for TVC cfu/ml 1st Inoculation: 3 days at 30° C. after inoculation
Procedure: as §1, §2, §3
50 g sterile slurry H90 with a solid content of 75 wt.-%, based on the total weight of the H90 slurry is supplemented with different concentrations of dry urea. The samples are then stored for 3 days at 30° C. After the storage, the samples are inoculated with 1 ml non-sterile calcium carbonate slurry (H90), incubated for 3 days at 30° C. and the TVC is determined. Samples are further inoculated with 1 ml non-sterile calcium carbonate slurry (H90). Up to three inoculations are performed.

[3] = pH measurement of the suspension; format: physicochemical; conditions: 30° C.; for pH Day 8: Table 2; for pH Day 4: Table 3; for pH Day 11: Table 5; for pH Day 16: industrial grade urea 5.5%, calcium carbonate 69%, water 25.5% w/w
Procedure: The pH of a suspension is measured at 25° C. using a Mettler Toledo Seven Easy pH meter and a Mettler Toledo InLab® Expert Pro pH electrode. A three point calibration (according to the segment method) of the instrument is first made using commercially available buffer solutions having pH values of 4, 7 and 10 at 20° C. (from Aldrich). The reported pH values are the endpoint values detected by the instrument (the endpoint is when the measured signal differs by less than 0.1 mV from the average over the last 6 s).

[4] = Table 2, urea 2.75%, calcium carbonate 73.1%, water 24.15% w/w
[5] = Table 2, urea 7.6%, calcium carbonate 67.1%, water 25.3% w/w
[6] = Table 3, urea 0.65%, calcium carbonate 75.7%, water 23.65% w/w
[7] = Table 3, urea 2.75%, calcium carbonate 73.1%, water 24.15% w/w
[8] = urea 2.75%, calcium carbonate 73.1%, water 24.15% w/w, inoculum none

In the case of `NC(N)=O` [urea], the “TVC cfu/ml Day 4” value [1, 4] is reported as <100 cfu/ml, the “TVC cfu/ml Day 8” value [1, 4] is reported as <100 cfu/ml and the “TVC cfu/ml Day 13” value [1, 4] is reported as <100 cfu/ml. For the same compound, the “TVC cfu/ml Day 1” value [1, 5] was <100 cfu/ml, the “TVC cfu/ml Day 4” value [1, 5] was <100 cfu/ml and the “TVC cfu/ml Day 8” value [1, 5] was <100 cfu/ml. For the same compound, the “TVC cfu/ml Day 13” value [1, 5] was <100 cfu/ml, the “TVC cfu/ml Day 1” value [1, 6] was >1E5 cfu/ml and the “TVC cfu/ml Day 4” value [1, 6] was >1E5 cfu/ml. The “TVC cfu/ml Day 4” value [1, 7] was 100 cfu/ml, the “TVC cfu/ml Day 9” value [1, 7] was <100 cfu/ml and the “preservation of calcium carbonate slurries from bacterial growth” value ([2]; low urea concentrations (table 1: 0.025-0.075%)) was “not able to preserve”. For the same compound, the “TVC cfu/ml 2nd Inoculation” value ([2]; urea 0.025%) was >1E6 cfu/ml, the “TVC cfu/ml 3rd Inoculation” value ([2]; urea 0.025%) was >1E6 cfu/ml and the “TVC cfu/ml 1st Inoculation” value ([2]; urea 0.025%) was >1E6 cfu/ml. For the same compound, the “TVC cfu/ml 2nd Inoculation” value ([2]; urea 0.05%) was >1E6 cfu/ml, the “TVC cfu/ml 3rd Inoculation” value ([2]; urea 0.05%) was >1E6 cfu/ml and the “TVC cfu/ml 1st Inoculation” value ([2]; urea 0.05%) was >1E6 cfu/ml. The “TVC cfu/ml 2nd Inoculation” value ([2]; urea 0.075%) was >1E6 cfu/ml, the “TVC cfu/ml 3rd Inoculation” value ([2]; urea 0.075%) was >1E6 cfu/ml and the “TVC cfu/ml 1st Inoculation” value ([2]; urea 0.075%) was >1E6 cfu/ml. For the same compound, the “pH Day 8” value [3, 8] was 9.16, the “pH Day 8” value ([3]; urea 7.6%, calcium carbonate 67.1%, water 25.3% w/w, inoculum none) was 9.25 and the “pH Day 4” value ([3]; urea 0.65%, calcium carbonate 75.7%, water 23.65% w/w, inoculum none) was 9.06. For the same compound, the “pH Day 4” value ([3]; urea 1.28%, calcium carbonate 74.9%, water 23.82% w/w, inoculum none) was 9.05, the “pH Day 4” value [3, 8] was 9.11 and the “pH Day 11” value ([3]; urea 0.40%, calcium carbonate 75.61%, water 23.99% w/w, inoculum H60) was 9.05. For the same compound, the “pH Day 11” value ([3]; urea 1.10%, calcium carbonate 75.48%, water 23.42% w/w, inoculum H60) was 9.25, the “pH Day 11” value ([3]; urea 2.80%, calcium carbonate 75.21%, water 21.98% w/w, inoculum H60) was 9.10 and the “pH Day 16” value ([3]; inoculum E. coli) was 9.02. The “pH Day 16” value ([3]; inoculum H60) was 9.00, the “pH Day 16” value ([3]; inoculum H90) was 8.97 and the “pH Day 16” value ([3]; inoculum P. putida) was 9.04. For the same compound, the “pH Day 16” value ([3]; inoculum none) was 9.02.
